Source: US20080311126A1, “Antisense Oligonucleotides Directed to Ribonucleotide Reducatase R2 and Uses Thereof in Combination Therapies for the Treatment of Cancer” (Genesense Technologies, Inc, priority 2004, published 2008)

How the values were obtained:
Assay type in all cases: in vivo
[1] = tested on: Caki-1 human renal carcinoma; experiment: Caki-1 renal tumour xenograft in SCID mice, SEQ ID NO:1 and interferon alpha
Experimental: Cell Line: Human renal carcinoma cell line (Caki-1) was grown as monolayer culture in Minimum essential medium (α-MEM) supplemented with 10% fetal bovine serum (FEBS), 0.1 mM non-essential amino acid, 1.0 mM sodium pyruvate, 100 U/ml penicillin, 100 μg/ml streptomycin and 0.25 μg/ml amphotericin B and 2 mM L-alanyl-L-glutamine at 37° C. in an atmosphere of 5% CO2 in air. The tumour cells were routinely subcultured twice weekly by trypsin-EDTA treatment. The cells were harvested from subconfluent logarithmically growing culture by treatment with trypsin-EDTA and counted for tumour inoculation.
Tumour Inoculation: An acclimation period of at least 7 days was allowed between animal receipt and commencement of tumour inoculation. When the female SCID mice were 6-7 weeks of age (20-25 g), each mouse was subcutaneously (s.c.) injected with 5×10^6 Caki-1 human renal carcinoma cells in 0.1 ml of PBS at the right flank of the mice to induce tumour growth.
Dose-Preparation and Treatment: The dose for SEQ ID NO:1 was formulated using the following procedure. From a concentrated stock solution (usually prepared in ddH2O at a concentration of 50 mg/ml and kept at −80° C.), SEQ ID NO:1 was diluted with saline to achieve a final target concentration of 1 or 2.5 mg/ml on the first day of dosing. Enough SEQ ID NO:1 was diluted so that the compound could be administered by bolus infusion into the tail vein every other day for the duration of the experiment. Recombinant interferon alfa-2b (Intron A™) was utilized according to the dose and treatment schedules below. The treatments were started 7 days after the tumour cell inoculation when the tumour size reached an approximate volume of 125 mm^3. Each treatment group contained 10 tumour-bearing mice. Routes of administration are indicated as follows: intravenous (i.v.) and intratumoural (i:t.).
Groups and Treatments: The following treatment groups were evaluated: • 1. Saline treated group-1: saline 0.1 ml/mouse/48 hours, i.v., n=10 • 2. Saline treated group-2: saline 0.05 ml/mouse/5 days/week, i.t., n=10 • 3. […] Intron A 10^3 unit/5 days/week treated group: 10^3 unit Intron A in 0.05 ml saline, i.t., n=10 • 6. Intron A 10^5 unit/5 days/week treated group: 10^5 unit Intron A in 0.05 ml saline, i.t., n=10 • 7. SEQ ID NO:1 1 mg/kg Plus Intron A 10^3 treated group: “3+5”, n=10 • 8. SEQ ID NO:1 1 mg kg Plus Intron A 10^5 treated group: “3+6”, n=10 • 9. SEQ ID NO:1 2.5 mg/kg Plus Intron A […], n=10 • 10. SEQ ID NO:1 2.5 mg/kg Plus Intron A 10^5 treated group: “4+6”, n=10
Mice received 25 treatments with SEQ ID NO:1 and 30 treatments with Intron A. The dosing schedule for Intron A was: treatment with Intron A for 3 consecutive weeks, 1 week off, and treatment with Intron A again for another 3 consecutive weeks. The dosing schedule for SEQ ID NO:1 was treatment with SEQ ID NO:1 every other day for the duration of the experiment.
Endpoints: The effects of SEQ ID NO:1 and Intron A on tumour growth were determined. Tumour sizes were measured every week from day 7 after the tumour cell inoculation in two dimensions using a caliper, and the volume was expressed in mm^3 using the formula: V=0.5 a×b^2, where a and b are the long and short diameters of the tumour, respectively. Mean tumour volumes calculated from each measurement were then plotted in a standard graph to compare the anti-tumour efficacy to that of controls. A day after the last treatment, tumours were excised from the animals and their weights were measured.
A second independent in vivo study was conducted as described in Example 1 utilizing SCID mice (female, 6 weeks old) and Caki-1 (human renal carcinoma cell line) to test the efficacy of SEQ ID NO:1 in combination with IFN alpha Briefly, 5×10^6 Caki-1 human renal carcinoma cells in 0.1 ml of PBS were injected subcutaneously at the right flank of the mice to induce tumour growth. Treatments started on the seventh day after tumour cell injection. […]

[2] = tested on: DU145 human prostatic cancer cells; experiment: DU145 prostatic tumour xenograft in SCID mice
Experimental: In both experiments, DU145 human prostatic cancer cells (1×10^7 cells in 100 μl of PBS) were subcutaneously injected into the right flank of 6-7 weeks old male SCID mice. After the size of tumour reached an approximate volume of 50 mm^3, 13 FIG. 15A) or 11 (FIG. 15B) days post tumour cell injection, SEQ ID NO:1 was administered by bolus infusion into the tail vein every other day at 10 mg/kg 15 times (FIG. 15A) or 14 times (FIG. 15B), respectively. Control animals received saline alone for the same period. Antitumour effect of SEQ ID NO:1 was further compared to that of mitoxantrone (Novantrone®) alone or in combination. Mitoxantrone was administered intravenously once at the beginning of the treatments at a dose of 2 mg/kg (FIG. 15A) or once a week for four weeks at a reduced dose of 0.8 mg/kg (FIG. 15B). All treatments were stopped at day 42 (FIG. 15A) or 38 (FIG. 15B); respectively. A day after the last treatment, tumours were excised from the animals and their weights were measured.

[3] = tested on: SK-OV-3 human ovary adenocarcinoma cells; experiment: SK-OV-3 ovary tumour xenograft in CD-1 nude mice
Experimental: SK-OV-3 human ovary adenocarcinoma cells (1×10^7 cells in 100 μl of PBS) were subcutaneously injected into the right flank of 6-7 weeks old female CD-1 nude mice. After the size of tumour reached an approximate volume of 100 mm^3, 6 days post tumour cell injection, SEQ ID NO:1 was administered by bolus infusion into the tail vein every other day at 10 mg/kg 17 times. Control animals received saline alone for the same period. Antitumour effect of SEQ ID NO: 1 was further compared to that of taxol or cisplatin alone or in combination. Taxol was administered intravenously once a week for first three weeks and intraperitoneally once a week for next two weeks at a dose of 10 mg/kg. Cisplatin was administered intravenously once a week for first three weeks and intraperitoneally once a week for next two weeks at a dose of 4 mg/kg. All treatments were stopped at day 40. Antitumour activities were estimated by the inhibition of tumour volume, which was measured with caliper. Each point represents mean tumour volume calculated from 9 animals per experimental group.

GGCTAAATCGCTCCACCAAG (chemistry not given here) [SEQ ID NO: 1, antisense oligonucleotide that hybridizes to the coding region of human ribonucleotide reductase R2 mRNA]
anti-tumour efficacy (tumour volume, tumour weight) ([1]; Example 2, SEQ ID NO:1 1 or 2.5 mg/kg/48 hours i.v., Intron A 10^3 or 10^5 unit 5 days/week i.t.): significant anti-tumour efficacy
anti-tumour efficacy (tumour volume, tumour weight) ([1]; Example 3, SEQ ID NO:1 2.5 or 5 mg/kg every 2 days i.v., Intron 10^5 unit 5 days/week i.t.): significant anti-tumour efficacy
anti-tumour efficacy (tumour volume, tumour weight) ([1]; Example 4, oligonucleotide 2.5 mg/kg every 2 days i.v., Intron A 10^5 unit 5 days/week i.t.): significant anti-tumour efficacy
Tumour weight as % of saline control ([2]; DU145 (prostatic), Mouse SCID, second of two value columns (two independent experiments)): 41%
antitumour effect (tumour weight) ([2]; FIG. 15A, SEQ ID NO:1 10 mg/kg 15 times, mitoxantrone 2 mg/kg once): significant delay of tumour growth
antitumour effect (tumour volume) ([3]; SEQ ID NO:1 10 mg/kg 17 times, taxol 10 mg/kg, cisplatin 4 mg/kg once a week): significant delay of tumour growth
tumour volume data as percentage of saline control ([3]; SK-OV-3 (ovary), Mouse CD-1): 42%
